Experimental data from patent US12263248B2, “Compounds and compositions for intracellular delivery of therapeutic agents” (ModernaTX, Inc., priority 2018, dated 2025).

How the values were obtained:
luciferase (Luc) mRNA [1] = assay: Luc expression in liver, lung, spleen and femur 6 hours after intravenous administration; type: in vivo; details: mice, 0.5 mpk; for Total Flux Liver / Total Flux Lung / Total Flux Spleen: intravenous
Description: The efficacy of the nanoparticle compositions presented in Table 1A was further evaluated by measuring the expression of modified luciferase in the liver, lung, spleen, and femur upon administration of a given composition. Formulations were administered intravenously to mice (n=3) at a dosage of 0.5 mpk and bioluminescence measured after 6 hours. The standard MC3 formulation and a PBS control were also tested. […] Flux in the liver was lowest for compositions including Compounds 58, 59, 137, and 141. Flux in the spleen was highest for compositions including Compounds 4, 7, 33, 34, 48, 53, 108, 129, 130, and 148, and lowest for compositions including Compounds 9, 59, 124, and 141.
(§1) Whole body and ex vivo organ bioluminescent imaging of mice: CD-1 mice were injected 15 minutes prior to the imaging timepoint intraperitoneally (IP) with 200 μL Xenolight D-luciferin K+ salt, diluted in PBS just prior to use to a concentration of 15 mg/mL. Ex vivo imaging of organs was completed within 25 minutes of luciferin administration. All images were quantified by region of interest for total flux.

[2] = Encapsulation efficiency of RNA (QUANT-IT RIBOGREEN RNA assay); type: physicochemical; details: Table 1A
Description: For nanoparticle compositions including an RNA, a QUANT-IT™ RIBOGREEN® RNA assay (Invitrogen Corporation Carlsbad, CA) can be used to evaluate the encapsulation of an RNA by the nanoparticle composition. The samples are diluted to a concentration of approximately […] in a TE buffer solution (10 mM Tris-HCl, 1 mM EDTA, pH 7.5). 50 μL of the diluted samples are transferred to a polystyrene 96 well plate and either 50 μL of TE buffer or 50 μL of a 2% Triton X-100 solution is added to the wells. The plate is incubated at a temperature of 37° C. for 15 minutes. The RIBOGREEN® reagent is diluted 1:100 in TE buffer, and 100 μL of this solution is added to each well. The fluorescence intensity can be measured using a fluorescence plate reader (Wallac Victor 1420 Multilabel Counter; Perkin Elmer, Waltham, MA) at an excitation wavelength of, for example, about 480 nm and an emission wavelength of, for example, about 520 nm. The fluorescence values of the reagent blank are subtracted from that of each of the samples and the percentage of free RNA is determined by dividing the fluorescence intensity of the intact sample (without addition of Triton X-100) by the fluorescence value of the disrupted sample (caused by the addition of Triton X-100).

[3] = Apparent (surface) pKa of the LNP formulation (TNS assay); type: physicochemical; details: Table 1A
Description: Using sodium hydroxide (1 M) and hydrochloric acid (1 M), 21 unique buffers were prepared from the master buffer stock at pH values between about 3 and 12. Next, a stock of 300 μM 6-(p-Toluidino)-2-naphthalenesulfonic acid sodium salt (TNS reagent) in DMSO was prepared and the LNP was mixed with the desired formulation buffer at a concentration of 0.04 mg/mL mRNA. This assay has been validated in 1× PBS and 20 mM Tris w/8% sucrose buffer. The buffer solutions at various pH values were added to a 96-well plate in triplicate for each pH. To each well was added 3.26 μL of LNP sample at a mRNA concentration of 0.04 mg/mL and 2.0 μL of 300 μM TNS reagent solution. After careful mixing, the resulting fluorescence values were read for each plate to create a sigmoidal plot of the fluorescence values vs. buffer pH. The […] inflection point of this curve is the apparent pKa of the LNP formulation.

[4] = Particle size and polydispersity index of nanoparticle compositions (Zetasizer Nano ZS); type: physicochemical; details: Table 1A; for Size (nm): lipid:DSPC:cholesterol:PEG-DMG 50:10:38.5:1.5 mol %
Description: A Zetasizer Nano ZS (Malvern Instruments Ltd, Malvern, Worcestershire, UK) can be used to determine the particle size, the polydispersity index (PDI) and the zeta potential of the nanoparticle compositions in 1×PBS in determining particle size and 15 mM PBS in determining zeta potential.

luciferase (Luc) mRNA [5] = assay: Luc expression, whole body bioluminescence after intravenous administration to mice; type: in vivo; details: for Total Flux 3 hours / Total Flux 6 hours / Total Flux 24 hours: Luc mRNA; for Fold increase in total body Luc Flux relative to MC3 at 6 h: Table 3A; for Fold increase in total body Luc Flux relative to MC3 at 6 h / 6 h Lipid/MC3 Avg. Luc Expression / Fold increase AUC Lipid/MC3 / AUC (h * p/s): i.v. administration; for 6 h Lipid/MC3 Avg. Luc Expression / Fold increase AUC Lipid/MC3 / AUC (h * p/s): Table 3C
Description: In order to monitor how effectively various nanoparticle compositions deliver therapeutic and/or prophylactics to targeted cells, different nanoparticle compositions including a particular therapeutic and/or prophylactic (for example, a modified or naturally occurring RNA such as an mRNA) are prepared and administered to rodent populations. Mice are intravenously, intramuscularly, intraarterially, or intratumorally administered a single dose including a nanoparticle composition with a formulation such as those provided in Example 3. In some instances, mice may be made to inhale doses. Dose sizes may range from 0.001 mg/kg to 10 mg/kg, where 10 mg/kg describes a dose including 10 mg of a therapeutic and/or prophylactic in a nanoparticle composition for each 1 kg of body mass of the mouse. A control composition including PBS may also be employed.
Upon administration of nanoparticle compositions to mice, dose delivery profiles, dose responses, and toxicity of particular formulations and doses thereof can be measured by enzyme-linked immunosorbent assays (ELISA), bioluminescent imaging, or other methods. For nanoparticle compositions including mRNA, time courses of protein expression can also be evaluated. Samples collected from the rodents for evaluation may include blood, sera, and tissue (for example, muscle tissue from the site of an intramuscular injection and internal tissue); sample collection may involve sacrifice of the animals.
The efficacy of the nanoparticle compositions presented in Table 1A was evaluated with a bioluminescence study. Formulations were administered intravenously to mice (n=6) at a dosage of 0.5 mg/kg (mpk) and bioluminescence measured at 3, 6, and 24 hour time points. The standard MC3 formulation and, in some instances, a control (e.g., a PBS control) were evaluated for comparison. […] In general, flux decreased as time progressed to less than 10% of the initial flux.
as §1

| EE (%) [2] | pKa [3] | PDI [4] | Size (nm) [4] | SMILES | Total Flux Liver (luciferase (Luc) mRNA [1]) | Total Flux Lung (luciferase (Luc) mRNA [1]) | Total Flux Spleen (luciferase (Luc) mRNA [1]) | Total Flux 3 hours (luciferase (Luc) mRNA [5]; mice, i.v., 0.5 mg/kg) | Total Flux 6 hours (luciferase (Luc) mRNA [5]; mice, i.v., 0.5 mg/kg) | Total Flux 24 hours (luciferase (Luc) mRNA [5]; mice, i.v., 0.5 mg/kg) | Fold increase in total body Luc Flux relative to MC3 at 6 h (luciferase (Luc) mRNA [5]) | Flux in the liver (luciferase (Luc) mRNA [1]; i.v., in words) | 6 h Lipid/MC3 Avg. Luc Expression (luciferase (Luc) mRNA [5]) | Fold increase AUC Lipid/MC3 (luciferase (Luc) mRNA [5]) | AUC (h * p/s) (luciferase (Luc) mRNA [5]; Luc) | total flux at 3 hours (luciferase (Luc) mRNA [5]; mice, i.v., 0.5 mg/kg, comparison in words) | Flux in the spleen (luciferase (Luc) mRNA [1]; i.v., in words) | Lipid/MC3 AUC (luciferase (Luc) mRNA [5]; Table 3D, intravenous) | AUC (p/s * h) (luciferase (Luc) mRNA [5]; Table 3D, intravenous, Luc) |
| --- | --- | --- | --- | --- | --- | --- | --- | --- | --- | --- | --- | --- | --- | --- | --- | --- | --- | --- | --- |
| 96.8% | 6.00 | 0.18 | 77.4 nm | CCCCCCCCCOC(=O)CCCN(C)CCCCCCCC(=O)OC(CCCCCCCC)CCCCCCCC [Compound 126, Heptadecan-9-yl 8-(methyl(4-(nonyloxy)-4-oxobutyl)amino)octanoate] | 7.41E+08 | 2.68E+06 | 1.87E+07 | 7.59E+09 | 1.09E+10 | 1.40E+08 | – | – | – | – | – | – | – | – | – |
| 98.2% | 6.36 | 0.12 | 63.9 nm | CCCCCCCCC(CCCCCCCC)OC(=O)CCCCCCCN(CCO)CCCCCCCC(=O)OC(CCCCCCCC)C1CC1 (stereo not drawn) [Compound 65, 1-Cyclopropylnonyl 8-((8-(heptadecan-9-yloxy)-8-oxooctyl)(2-hydroxyethyl)amino)octanoate] | 9.56E+09 | 3.79E+07 | 6.57E+07 | 6.56E+10 | 7.01E+10 | 7.50E+08 | 3.16 | – | – | – | – | – | – | – | – |
| 97.7% | 6.69 | 0.14 | 76.8 nm | CCCCCCCCC(CCCCCCCC)OC(=O)CCCCCCCN(CCO)CCCCCC(=O)OC1CCC(CCCCC)CC1 (stereo not drawn) [Compound 68, Heptadecan-9-yl 8-((2-hydroxyethyl)(6-oxo-6-((4-pentylcyclohexyl)oxy)hexyl)amino)octanoate] | 8.42E+09 | 3.98E+07 | 6.69E+07 | 5.22E+10 | 8.16E+10 | 2.15E+09 | 3.68 | – | – | – | – | – | – | – | – |
| 97.5% | 6.51 | 0.15 | 73.7 nm | CCCCCCCCC(C)OC(=O)CCCN(CCO)CCCCCCCC(=O)OC(CCCCCCCC)CCCCCCCC (stereo not drawn) [Compound 70, Heptadecan-9-yl 8-((4-(decan-2-yloxy)-4-oxobutyl)(2-hydroxyethyl)amino)octanoate] | 8.55E+08 | 6.32E+06 | 2.06E+06 | 4.70E+10 | 2.49E+10 | 9.27E+08 | – | – | – | – | – | – | – | – | – |
| 90.20% | 6.47 | 0.130 | 89.5 nm | CCCCCCCCC(C)OC(=O)CCCCCCCN(CCO)CCCCCCCOC(=O)C(CCCCCCCC)CCCCCCCC (stereo not drawn) [Compound 135, 7-((8-(Decan-2-yloxy)-8-oxooctyl)(2-hydroxyethyl)amino)heptyl 2-octyldecanoate] | 1.65E+10 | 2.71E+07 | 1.39E+08 | 1.24E+11 | 9.90E+10 | 2.51E+09 | – | highest | 13.6 | 15.2 | 1.25E+12 h * p/s | highest | – | – | – |
| 95.66% | 6.80 | 0.13 | 107.3 nm | CCCCCCCCCOC(=O)CCCCCCCN(CCO)CCCCCCCC(=O)OC(CCCCC)CCCCCCCC (stereo not drawn) [Compound 33, nonyl 8-((2-hydroxyethyl)(8-oxo-8-(tetradecan-6-yloxy)octyl)amino) octanoate] | 1.78E+10 | 2.92E+07 | 3.77E+08 | 6.53E+10 | 1.20E+11 | 3.71E+09 | 2.74 | highest | – | – | – | – | highest | – | – |
| 30.77% | 7.34 | 0.180 | 298.0 nm | CCCCCCCCOP(=O)(OCCCCCCCC)OCCCCCCCN(CCO)CCCCCCCC(=O)OC(C)CCCCCCCC (stereo not drawn) [Compound 132, Decan-2-yl 8-((7-((bis(octyloxy)phosphoryl)oxy)heptyl)(2-hydroxyethyl)amino)octanoate] | 1.49E+08 | 1.39E+07 | 3.37E+08 | 1.77E+09 | 1.36E+09 | 5.31E+07 | – | – | 0.187 | 0.212 | 1.75E+10 h * p/s | – | – | – | – |
| 94.28% | 6.827 | 0.110 | 92.9 nm | CCCCCCCCCOC(=O)CCCCCCCN(CCCCCCCC(=O)OC(CCCCCCCC)CCCCCCCC)CCOCCO [Compound 154, Heptadecan-9-yl 8-((2-(2-hydroxyethoxy)ethyl)(8-(nonyloxy)-8-oxooctylamino octanoate] | 3.62E+08 | 2.89E+06 | 1.30E+07 | 2.49E+09 | 4.89E+09 | 6.26E+07 | – | – | – | – | – | – | – | 0.29 | 5.560E+010 p/s * h |
| 91.48% | 6.38 | 0.098 | 66.0 nm | CCCCCCCCC(CCCCCC)C(=O)OCCCCCCCCCN(CCO)CCCCCCCCCOC(=O)C(CCCCCC)CCCCCCCC (stereo not drawn) [Compound 133, ((2-Hydroxyethyl)azanediyl)bis(nonane-9,1-diyl) bis(2-hexyldecanoate)] | 2.94E+09 | 3.18E+06 | 1.77E+07 | 3.32E+10 | 2.93E+10 | 4.74E+08 | – | – | 4.02 | 4.39 | 3.62E+11 h * p/s | – | – | – | – |
